Data: ChEMBL document CHEMBL5634089, “Design, synthesis and evaluation of 2-pyrimidinylindole derivatives as anti-obesity agents by regulating lipid metabolism” (Eur J Med Chem, 2023)
Values after ≈ are worked out from the molar mass of the structure shown. Active and inactive are the calls of the source. The rule behind the calls is not given here.

What was measured:
3T3-L1 [1] = assay: Anti-adipogenic activity in mouse 3T3-L1 cells assessed as lipid-lowering activity at 1 uM measured after 9 days by Oil Red O staining based microplate reader analysis relative to control; type: functional; conditions: time 9 day
[2] = Therapeutic index, ratio of IC50 for cytotoxicity against mouse 3T3-L1 cells to EC50 for anti-adipogenic in mouse 3T3-L1 cells; type: toxicity, cell-based; conditions: read-out: Ratio IC50/EC50
[3] = AUC (0 to t) in Sprague-Dawley rat at 2 mg/kg, iv administered for 24 hrs by LC-MS/MS analysis; type: ADME, organism-based; conditions: in vivo
[4] = Half life in Sprague-Dawley rat at 20 mg/kg, po administered for 24 hrs by LC-MS/MS analysis; type: ADME, organism-based; conditions: in vivo
[5] = AUC (0 to t) in Sprague-Dawley rat at 20 mg/kg, po administered for 24 hrs by LC-MS/MS analysis; type: ADME, organism-based; conditions: in vivo
[6] = Apparent volume of distribution during terminal phase in Sprague-Dawley rat at 20 mg/kg, po administered for 24 hrs by LC-MS/MS analysis; type: ADME, organism-based; conditions: in vivo, read-out: Vz/F
[7] = Aqueous solubility of compound incubated for 24 hrs by HPLC analysis; type: physicochemical; conditions: aqueous medium
Mus musculus [8] = assay: Anti-obesity activity in high-fat and high-cholesterol diet induced C57BL/6J mouse assessed as reduction in serum glucose level at 20 mg/kg, ip measured after 3 weeks by GTT analysis; type: functional, organism-based
Mus musculus [9] = assay: Anti-obesity activity in high-fat and high-cholesterol diet induced C57BL/6J mouse assessed as reduction in total cholesterol level at 20 mg/kg, ip administered every day for 6 weeks; type: functional, organism-based
Mus musculus [10] = assay: Anti-obesity activity in high-fat and high-cholesterol diet induced C57BL/6J mouse assessed as attenuation of hepatocyte ballooning at 20 mg/kg, ip administered every day for 6 weeks by […] staining based microscopic analysis; type: functional, organism-based
Mus musculus [11] = assay: Anti-obesity activity in high-fat and high-cholesterol diet induced C57BL/6J mouse assessed as attenuation of fibrosis in liver at 20 mg/kg, ip administered every day for 6 weeks by Sirius red staining based microscopic analysis; type: functional, organism-based
Mus musculus [12] = assay: Anti-obesity activity in high-fat and high-cholesterol diet induced C57BL/6J mouse assessed as reduction in liver damage by measuring reduction in alanine aminotransferase level in serum at 20 mg/kg, ip administered every day for 6 weeks; type: functional, organism-based
Mus musculus [13] = assay: Anti-obesity activity in high-fat and high-cholesterol diet induced C57BL/6J mouse assessed as reduction in liver damage by measuring reduction in aspartate aminotransferase level in serum at 20 mg/kg, ip administered every day for 6 weeks; type: functional, organism-based
Mus musculus [14] = assay: Anti-obesity activity in high-fat and high-cholesterol diet induced C57BL/6J mouse assessed as reduction in liver damage by measuring reduction in LDH level in serum at 20 mg/kg, ip administered every day for 6 weeks; type: functional, organism-based
3T3-L1 [15] = assay: Anti-adipogenic activity against mouse 3T3-L1 cells assessed as decrease in C/EBP alpha mRNA expression at 0.2 to 0.8 uM incubated for 3 days by RT-PCR analysis; type: functional, cell-based; conditions: dose 0.2-0.8 µM, time 3.0 day
3T3-L1 [16] = assay: Anti-adipogenic activity against mouse 3T3-L1 cells assessed as increase in Acsl1 mRNA expression at 0.2 to 0.8 uM incubated for 3 days by RT-PCR analysis; type: functional, cell-based; conditions: dose 0.2-0.8 µM, time 3.0 day

CC(=O)c1c(-c2nccc(NCCN3CCCC3)n2)[nH]c2ccccc12
Activity (3T3-L1 [1]): 100.7%
selectivity ratio [2]: 255
AUC(0-t) at 24 h [3]: 219 ng·h/mL
half-life [4]: 2.9 h
AUC(0-t) at 24 h [5]: 1380 ng·h/mL
Vd/F [6]: 65.2 L/kg
solubility at 24 h [7]: 161 µg/mL (≈ 461 µM)
Activity (Mus musculus [8]): Active
Activity (Mus musculus [9]): Active
Activity (Mus musculus [10]): Active
Activity (Mus musculus [11]): Active
Activity (Mus musculus [12]): Active
Activity (Mus musculus [13]): Active
Activity (Mus musculus [14]): Active
Activity (3T3-L1 [15]): Active
Activity (3T3-L1 [16]): Active
